Measured values reported in the NIST ThermoML archive (doi:10.1016/j.tca.2010.02.010).
Numbers after ± are expanded uncertainties.

Key:
[1] = xn = mol fraction of the nth substance listed; details: 298.15 K, 101 kPa, Liquid, Vibrating tube method
[2] = 298.15 K; 101 kPa; Liquid; Vibrating tube method

For `CC(C)CO` [2-methyl-1-propanol] + CCCCN, the mass density ([1]; x2 = 0) was 797.84 ± 0.31 kg/m3.

Compound `CC(C)CO` [2-methyl-1-propanol] has a mass density [2] of 797.84 ± 0.31 kg/m3.

`CCCCN` [1-butanamine] + CCCCCl gave a mass density ([1]; x2 = 0) of 734.65 ± 0.21 kg/m3, a mass density ([1]; x2 = 0.0428) of 740.64 ± 0.21 kg/m3 and a mass density ([1]; x2 = 0.0758) of 745.29 ± 0.21 kg/m3. It also gave a mass density ([1]; x2 = 0.1564) of 756.7 ± 0.2 kg/m3, a mass density ([1]; x2 = 0.2259) of 766.61 ± 0.2 kg/m3 and a mass density ([1]; x2 = 0.3163) of 779.6 ± 0.19 kg/m3. The mass density ([1]; x2 = 0.3765) was 788.3 ± 0.19 kg/m3, the mass density ([1]; x2 = 0.4412) was 797.66 ± 0.19 kg/m3 and the mass density ([1]; x2 = 0.4959) was 805.59 ± 0.18 kg/m3. It also gave a mass density ([1]; x2 = 0.5804) of 817.91 ± 0.18 kg/m3, a mass density ([1]; x2 = 0.6566) of 829.09 ± 0.17 kg/m3 and a mass density ([1]; x2 = 0.7272) of 839.52 ± 0.17 kg/m3. It also gave a mass density ([1]; x2 = 0.7794) of 847.26 ± 0.17 kg/m3, a mass density ([1]; x2 = 0.8465) of 857.31 ± 0.16 kg/m3 and a mass density ([1]; x2 = 0.8923) of 864.25 ± 0.16 kg/m3. It also gave a mass density ([1]; x2 = 0.9437) of 872.12 ± 0.16 kg/m3.

Work on `CCCCCl` [1-chlorobutane] + CC(C)CO yielded a mass density ([1]; x1 = 0.037) of 801.07 ± 0.3 kg/m3, a mass density ([1]; x1 = 0.0748) of 804.35 ± 0.29 kg/m3 and a mass density ([1]; x1 = 0.1521) of 811.04 ± 0.28 kg/m3. It also gave a mass density ([1]; x1 = 0.2331) of 817.97 ± 0.27 kg/m3, a mass density ([1]; x1 = 0.3472) of 827.62 ± 0.25 kg/m3 and a mass density ([1]; x1 = 0.4266) of 834.27 ± 0.23 kg/m3. It also gave a mass density ([1]; x1 = 0.4911) of 839.59 ± 0.22 kg/m3, a mass density ([1]; x1 = 0.5817) of 847.01 ± 0.21 kg/m3 and a mass density ([1]; x1 = 0.6178) of 849.95 ± 0.2 kg/m3. It also gave a mass density ([1]; x1 = 0.6855) of 855.42 ± 0.19 kg/m3, a mass density ([1]; x1 = 0.7946) of 864.22 ± 0.18 kg/m3 and a mass density ([1]; x1 = 0.8885) of 871.78 ± 0.17 kg/m3. For the same compound, the mass density ([1]; x1 = 0.9428) was 876.18 ± 0.16 kg/m3 and the mass density ([1]; x1 = 1) was 880.86 ± 0.15 kg/m3.

Compound `CCCCCl` [1-chlorobutane] + CCCCN has a mass density ([1]; x1 = 1) of 880.86 ± 0.15 kg/m3.

`CCCCN` [1-butanamine] showed a mass density [2] of 734.65 ± 0.21 kg/m3.

`CCCCCl` [1-chlorobutane] showed a mass density [2] of 880.86 ± 0.15 kg/m3.

For `CCCCN` [1-butanamine] + CC(C)CO, the mass density ([1]; x1 = 0.0482) was 796.16 ± 0.3 kg/m3, the mass density ([1]; x1 = 0.0921) was 794.54 ± 0.29 kg/m3 and the mass density ([1]; x1 = 0.1855) was 790.79 ± 0.28 kg/m3. The mass density ([1]; x1 = 0.2961) was 785.62 ± 0.26 kg/m3, the mass density ([1]; x1 = 0.3674) was 781.71 ± 0.25 kg/m3 and the mass density ([1]; x1 = 0.4578) was 776.31 ± 0.25 kg/m3. The mass density ([1]; x1 = 0.5021) was 773.52 ± 0.24 kg/m3, the mass density ([1]; x1 = 0.5502) was 770.4 ± 0.24 kg/m3 and the mass density ([1]; x1 = 0.6313) was 764.59 ± 0.23 kg/m3. The mass density ([1]; x1 = 0.7237) was 757.45 ± 0.22 kg/m3, the mass density ([1]; x1 = 0.8191) was 749.75 ± 0.22 kg/m3 and the mass density ([1]; x1 = 0.9098) was 742.18 ± 0.21 kg/m3. It also gave a mass density ([1]; x1 = 0.9418) of 739.52 ± 0.21 kg/m3 and a mass density ([1]; x1 = 1) of 734.65 ± 0.21 kg/m3.

With `CC(C)CO` [2-methyl-1-propanol] + CCCCCl the mass density ([1]; x2 = 0) was 797.84 ± 0.31 kg/m3.
